Like-named read-outs stand apart in the source and are kept apart here.
Biological target: T1, purified catalytic domain of recombinant human TACE (rhTACEc) (Homo sapiens, UniProt P78536, N452Q/S266A)
T1 construct: rhTACEc, Residue 215 to 477 with two mutation (S266A and N452Q) and a 6xHis tail; 6xHis (C); made in house; host or cells: baculovirus/Hi5 insect cells
Assay: TACE kinetic assay, cleavage of internally quenched fluorescent peptide substrate SPDL-3
Type: biochemical
Procedure: TACE activity is determined by a kinetic assay measuring the rate of increase in fluorescent intensity generated by TACE catalyzed cleavage of an internally quenched peptide substrate (SPDL-3). […] It is purified from the baculovirus/Hi5 cells expression system using affinity chromatography. […] MCA is (7-Methoxycoumarin-4-yl)acetyl. Dpa is N-3-(2,4-Dinitrophenyl)-L-2,3-diaminopropionyl.
A 50 μl assay mixture contains 20 mM HEPES, pH 7.3, 5 mM CaCl2, 100 µM ZnCl2, 2% DMSO, 0.04% Methylcellulose, 30 μM SPDL-3, 70 pM rhTACEc and a test compound. RhTACEc is pre-incubated with the testing compound for 90 min. at 25° C. Reaction is started by addition of the substrate. […] Rate of enzymatic reaction is shown as Units per second. Effect of a test compound is shown as % of TACE activity in the absence of the compound.

[1] = TACE inhibition, Table 1, read-out: Ki Rating

T1 sequence (P78536 215-477 S266A/N452Q): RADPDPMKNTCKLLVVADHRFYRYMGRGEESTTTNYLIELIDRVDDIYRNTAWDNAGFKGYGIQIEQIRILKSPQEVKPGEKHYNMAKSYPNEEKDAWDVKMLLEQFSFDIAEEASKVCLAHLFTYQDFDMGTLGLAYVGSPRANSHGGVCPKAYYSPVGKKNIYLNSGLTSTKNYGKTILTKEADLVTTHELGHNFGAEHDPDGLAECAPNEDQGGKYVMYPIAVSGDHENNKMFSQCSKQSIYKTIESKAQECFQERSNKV

SMILES | Ki [1] [nM] | Ki (Specific TACE inhibitory activity of representative compounds, read-out: Ki) [nM]
COC(=O)c1ccc([C@@]2(CN3Cc4ccc(OC)cc4C3=O)NC(=O)NC2=O)cc1 [Compound 40] | 10 to 100 | –
COc1ccc2c(c1)C(=O)N(C[C@@]1(/C(Cc3c[nH]c(=O)c(C)c3)=N/O)NC(=O)NC1=O)C2 [Compound 48] | 10 to 100 | –
COc1ccc2c(c1)C(=O)N(CC1(CC(=O)O)NC(=O)NC1=O)C2 (centres unmarked) [Compound 2] | 100 to 1000 | –
O=C(O)Cc1ccc2c(c1)CN(CC1(c3ccc(F)cc3)NC(=O)NC1=O)C2=O (centres unmarked) [Compound 36] | 100 to 1000 | –
COc1ccc2c(c1)C(=O)N(C[C@@]1(c3ccc(C#Cc4ccccn4)cc3)NC(=O)NC1=O)C2 [Compound 22] | < 10 | –
COc1ccc2c(c1)C(=O)N(CC1(CC(=O)N3CCOCC3)NC(=O)NC1=O)C2 (centres unmarked) [Compound 3] | 10 to 100 | –
CCN(CC)C(=O)CC1(CN2Cc3ccc(OC)cc3C2=O)NC(=O)NC1=O (centres unmarked) [Compound 8] | 10 to 100 | –
COc1ccc2c(c1)C(=O)N(C[C@@]1(c3ccc(-c4ccccc4C(N)=O)cc3)NC(=O)NC1=O)C2 [Compound 51] | < 10 | –
COc1ccc2c(c1)C(=O)N(CC1(CC(=O)NCC3CCCO3)NC(=O)NC1=O)C2 (centres unmarked) [Compound 12] | 10 to 100 | –
COc1ccc2c(c1)C(=O)N(C[C@@]1(c3cc4cc(S(C)(=O)=O)ccc4o3)NC(=O)NC1=O)C2 [Compound 44] | < 10 | –
COc1ccc2c(c1)C(=O)N(C[C@]1(c3ccc(S(C)(=O)=O)cc3)NC(=O)NC1=O)C2 [Compound 42] | 100 to 1000 | –
COC(=O)c1cnc(-c2ccc([C@]3(CN4Cc5ccc(OC)cc5C4=O)NC(=O)NC3=O)cc2)cn1 [Compound 54] | < 10 | –
COc1ccc2c(c1)CN(CC1(c3ccc(C#CCN(C)C)cc3)NC(=O)NC1=O)C2=O (centres unmarked) [Compound 18] | < 10 | –
COc1ccc2c(c1)C(=O)N(CC1(CC(=O)NC3CCCCC3)NC(=O)NC1=O)C2 (centres unmarked) [Compound 6] | 10 to 100 | –

Further lines, results first:

Ki [1] [nM] | Ki (Specific TACE inhibitory activity of representative compounds, read-out: Ki) [nM] | SMILES
< 10 | – | COc1ccc2c(c1)C(=O)N(C[C@@]1(c3ccc(-c4cnc(C(=O)NCC(F)(F)F)cn4)cc3)NC(=O)NC1=O)C2 [Compound 72]
< 10 | – | COc1ccc2c(c1)C(=O)N(C[C@@]1(c3ccc(Oc4ccc(C(=O)NCCN(C)C)cc4)cc3)NC(=O)NC1=O)C2 [Compound 83]
< 10 | – | COc1ccc2c(c1)C(=O)N(C[C@@]1(c3ccc(C(N)=O)cc3)NC(=O)NC1=O)C2 [Compound 103]
< 10 | – | COC(=O)c1cccc(Oc2ccc([C@]3(CN4Cc5ccc(OC)cc5C4=O)NC(=O)NC3=O)cc2)c1 [Compound 86]
< 10 | – | COc1ccc2c(c1)C(=O)N(C[C@@]1(c3ccc(-c4cccc(C#N)c4)cc3)NC(=O)NC1=O)C2 [Compound 81]
< 10 | 0.15 | COc1ccc2c(c1)C(=O)N(C[C@@]1(c3ccc(-c4cc(C(=O)NC5CC5)cc(C)n4)cc3)NC(=O)NC1=O)C2 [Compound 64]
< 10 | – | COC(=O)c1ccnc(-c2ccc(C3(CN4Cc5ccc(OC)cc5C4=O)NC(=O)NC3=O)cc2)c1 (centres unmarked) [Compound 55]
< 10 | – | COc1ccc2c(c1)C(=O)N(C[C@@]1(c3ccc(-c4cc(C(N)=O)cc(C)n4)cc3)NC(=O)NC1=O)C2 [Compound 67]
< 10 | – | COc1ccc2c(c1)C(=O)N(C[C@@]1(c3ccc(-c4ccc(C(N)=O)nc4)cc3)NC(=O)NC1=O)C2 [Compound 75]
< 10 | – | COc1ccc2c(c1)C(=O)N(C[C@@]1(c3ccc(-c4cccnc4C#N)cc3)NC(=O)NC1=O)C2 [Compound 104]
< 10 | – | COc1ccc2c(c1)C(=O)N(C[C@@]1(c3ccc(C(=O)O)cc3)NC(=O)NC1=O)C2 [Compound 100]
< 10 | – | COc1ccc2c(c1)C(=O)N(C[C@@]1(c3ccc(Oc4ccc(C(=O)N5CCOCC5)cc4)cc3)NC(=O)NC1=O)C2 [Compound 82]
< 10 | – | COc1ccc2c(c1)C(=O)N(C[C@@]1(c3ccc(-c4ncccc4C(=O)N(C)C)cc3)NC(=O)NC1=O)C2 [Compound 63]
10 to 100 | – | COc1ccc2c(c1)C(=O)N(C[C@]1(c3ccc(C#Cc4cccnc4)cc3)NC(=O)NC1=O)C2 [Compound 95]
< 10 | – | COc1ccc2c(c1)C(=O)N(C[C@@]1(c3ccc(-c4ncccc4C(=O)NC4CC4)cc3)NC(=O)NC1=O)C2 [Compound 62]
< 10 | – | CC#CCOc1ccc([C@]2(CN3Cc4ccc(OC)cc4C3=O)NC(=O)NC2=O)cc1 [Compound 91]
< 10 | – | COc1ccc2c(c1)C(=O)N(C[C@@]1(c3ccc(C#Cc4cccnc4)cc3)NC(=O)NC1=O)C2 [Compound 94]
< 10 | – | COc1ccc2c(c1)C(=O)N(C[C@@]1(c3ccc(-c4cncc(C(N)=O)c4)cc3)NC(=O)NC1=O)C2 [Compound 58]
< 10 | – | COC(=O)c1ccnc(-c2ccc([C@]3(CN4Cc5ccc(OC)cc5C4=O)NC(=O)NC3=O)cc2)c1 [Compound 74]
< 10 | – | COc1ccc2c(c1)C(=O)N(C[C@@]1(c3ccc(C(=O)N4CCOCC4)cc3)NC(=O)NC1=O)C2 [Compound 99]

— patent US8178553B2, “Compounds for the treatment of inflammatory disorders” (Schering Corporation, priority 2006, dated 2012)
